# Test system: HepG2
# Test: Cytotoxicity in human HepG2 cells assessed as reduction in cell viability incubated for 48 hrs by MTT assay
# Type: cell-based
# Settings: hepg2, 48 h
row,Structure (SMILES),Activity
1,COC(=O)C1=CO[C@@H](O[C@@H]2O[C@H](CO)[C@@H](O)[C@H](O)[C@H]2O)[C@@H]2[C@H](C)O[C@H](O)C[C@H]12,Non-Toxic
2,COC(=O)C1=CO[C@@H](O[C@@H]2O[C@H](CO[C@@H]3C[C@@H]4C(C(=O)OC)=CO[C@@H](O[C@@H]5O[C@H](CO)[C@@H](O)[C@H](O)[C@H]5O)[C@@H]4[C@H](C)O3)[C@@H](O)[C@H](O)[C@H]2O)[C@@H]2[C@H](C)O[C@H](OC)C[C@H]12,Non-Toxic
3,COC(=O)C1=CO[C@@H](O[C@@H]2O[C@H](CO)[C@@H](O[C@H]3C[C@@H]4C(C(=O)OC)=CO[C@@H](O[C@@H]5O[C@H](C)[C@@H](O)[C@H](O)[C@H]5O)[C@@H]4[C@H](C)O3)[C@H](O)[C@H]2O)[C@@H]2[C@@H](C)[C@@H](O)C[C@H]12,Non-Toxic
4,COC(=O)C1=CO[C@@H](O[C@@H]2O[C@H](CO)[C@@H](O)[C@H](O)[C@H]2O)[C@@H]2[C@H](C)O[C@@H](OC[C@H]3O[C@@H](O[C@@H]4OC=C(C(=O)OC)[C@H]5C[C@@H](OC)O[C@@H](C)[C@@H]45)[C@H](O)[C@@H](O)[C@@H]3O)C[C@H]12,Non-Toxic
5,COC(=O)C1=CO[C@@H](O[C@@H]2O[C@H](CO)[C@@H](O)[C@H](O)[C@H]2O)[C@@H]2[C@H](C)O[C@@H](O[C@H]3[C@H](O[C@@H]4OC=C(C(=O)OC)[C@H]5C[C@H](OC)O[C@@H](C)[C@@H]45)O[C@H](CO)[C@@H](O)[C@@H]3O)C[C@H]12,Non-Toxic
6,CCO[C@@H]1C[C@@H]2C(C(=O)OC)=CO[C@@H](O[C@@H]3O[C@H](CO)[C@@H](O)[C@H](O)[C@H]3O)[C@@H]2[C@H](C)O1,Non-Toxic
7,COC(=O)C1=CO[C@@H](O[C@@H]2O[C@H](CO[C@H]3C[C@@H]4C(C(=O)OC)=CO[C@@H](O[C@@H]5O[C@H](CO)[C@@H](O)[C@H](O)[C@H]5O)[C@@H]4[C@H](C)O3)[C@@H](O)[C@H](O)[C@H]2O)[C@@H]2[C@H](C)O[C@@H](OC)C[C@H]12,Non-Toxic
8,COC(=O)C1=CO[C@@H](O[C@@H]2O[C@H](CO)[C@@H](O)[C@H](O)[C@H]2O)[C@@H]2[C@H](C)O[C@H](O[C@H]3[C@H](O[C@@H]4OC=C(C(=O)OC)[C@H]5C[C@H](OC)O[C@@H](C)[C@@H]45)O[C@H](CO)[C@@H](O)[C@@H]3O)C[C@H]12,Non-Toxic
9,COC(=O)C1=CO[C@@H](O[C@@H]2O[C@H](C)[C@@H](O)[C@H](O)[C@H]2O)[C@@H]2[C@H](C)O[C@@H](O[C@@H]3[C@@H](O)[C@H](O[C@@H]4OC=C(C(=O)OC)[C@H]5C[C@@H](OC)O[C@@H](C)[C@@H]45)O[C@H](CO)[C@H]3O)C[C@H]12,Non-Toxic
10,COC(=O)C1=CO[C@@H](O[C@@H]2O[C@H](CO)[C@@H](O)[C@H](O)[C@H]2O)[C@@H]2[C@H](C)[C@@H](O)C[C@H]12,Non-Toxic
11,COC(=O)C1=CO[C@@H](O[C@@H]2O[C@H](CO)[C@@H](O)[C@H](O)[C@H]2O)[C@@H]2[C@@H](C)[C@@H](O[C@H]3C[C@@H]4C(C(=O)OC)=CO[C@@H](O[C@@H]5O[C@H](CO)[C@@H](O)[C@H](O)[C@H]5O)[C@@H]4[C@@H](C)O3)C[C@H]12,Non-Toxic
12,COC(=O)C1=CO[C@@H](O[C@@H]2O[C@H](CO)[C@@H](O)[C@H](O)[C@H]2O)[C@@H]2[C@H](C)O[C@@H](OC)C[C@H]12,Non-Toxic
13,COC(=O)C1=CO[C@@H](O[C@@H]2O[C@H](C)[C@@H](O)[C@H](O)[C@H]2O)[C@@H]2[C@H](C)O[C@@H](O[C@H]3[C@H](O)[C@@H](O)[C@H](O[C@@H]4OC=C(C(=O)OC)[C@H]5C[C@H](OC)O[C@@H](C)[C@@H]45)O[C@@H]3CO)C[C@H]12,Non-Toxic
14,COC(=O)C1=CO[C@@H](O[C@@H]2O[C@H](CO)[C@@H](O)[C@H](O)[C@H]2O[C@@H]2C[C@@H]3C(C(=O)OC)=CO[C@@H](O[C@@H]4O[C@H](CO)[C@@H](O)[C@H](O)[C@H]4O)[C@@H]3[C@H](C)O2)[C@@H]2[C@@H](C)[C@@H](O)C[C@H]12,Non-Toxic
15,COC(=O)C1=CO[C@@H](O[C@@H]2O[C@H](CO[C@@H]3C[C@@H]4C(C(=O)OC)=CO[C@@H](O[C@@H]5O[C@H](CO)[C@@H](O)[C@H](O)[C@H]5O)[C@@H]4[C@H](C)O3)[C@@H](O)[C@H](O)[C@H]2O)[C@@H]2[C@@H](C)[C@@H](O)C[C@H]12,Non-Toxic
16,COC(=O)C1=CO[C@@H](O[C@@H]2O[C@H](CO)[C@@H](O)[C@H](O)[C@H]2O)[C@@H]2[C@H](C)O[C@H](O[C@H]3[C@H](O[C@@H]4OC=C(C(=O)OC)[C@H]5C[C@@H](OC)O[C@@H](C)[C@@H]45)O[C@H](CO)[C@@H](O)[C@@H]3O)C[C@H]12,Non-Toxic
17,CCO[C@H]1C[C@@H]2C(C(=O)OC)=CO[C@@H](O[C@@H]3O[C@H](CO[C@H]4C[C@@H]5C(C(=O)OC)=CO[C@@H](O[C@@H]6O[C@H](CO)[C@@H](O)[C@H](O)[C@H]6O)[C@@H]5[C@H](C)O4)[C@@H](O)[C@H](O)[C@H]3O)[C@@H]2[C@H](C)O1,Non-Toxic
18,CCO[C@H]1C[C@@H]2C(C(=O)OC)=CO[C@@H](O[C@@H]3O[C@H](CO)[C@@H](O)[C@H](O)[C@H]3O)[C@@H]2[C@H](C)O1,Non-Toxic
19,COC(=O)C1=CO[C@@H](O[C@@H]2O[C@H](C)[C@@H](O)[C@H](O)[C@H]2O)[C@@H]2[C@H](C)O[C@@H](O[C@@H]3[C@@H](O)[C@H](O[C@@H]4OC=C(C(=O)OC)[C@H]5C[C@H](OC)O[C@@H](C)[C@@H]45)O[C@H](CO)[C@H]3O)C[C@H]12,Non-Toxic
20,C=C[C@H]1[C@H](O[C@@H]2O[C@H](CO)[C@@H](O)[C@H](O)[C@H]2O)OC=C2C(=O)OCC[C@H]21 [SWEROSIDE],Non-Toxic
21,COC(=O)C1=CO[C@@H](O[C@@H]2O[C@H](CO)[C@@H](O)[C@H](O)[C@H]2O)[C@@H]2[C@H](C)O[C@H](OC)C[C@H]12,Non-Toxic
22,COC(=O)C1=CO[C@@H](O[C@@H]2O[C@H](CO)[C@@H](O)[C@H](O)[C@H]2O)[C@@H]2[C@H](C)O[C@@H](O)C[C@H]12 [MORRONISIDE],Non-Toxic
23,CCO[C@@H]1C[C@@H]2C(C(=O)OC)=CO[C@@H](O[C@@H]3O[C@H](CO[C@H]4C[C@@H]5C(C(=O)OC)=CO[C@@H](O[C@@H]6O[C@H](CO)[C@@H](O)[C@H](O)[C@H]6O)[C@@H]5[C@H](C)O4)[C@@H](O)[C@H](O)[C@H]3O)[C@@H]2[C@H](C)O1,Non-Toxic
24,COC(=O)C1=CO[C@@H](O[C@@H]2O[C@H](CO)[C@@H](O)[C@H](O)[C@H]2O)[C@@H]2[C@@H](C)[C@@H](O)C[C@H]12 [LOGANIN],Non-Toxic
25,COC(=O)C1=CO[C@@H](O[C@@H]2O[C@H](CO[C@@H]3C[C@@H]4C(C(=O)OC)=CO[C@@H](O[C@@H]5O[C@H](CO)[C@@H](O)[C@H](O)[C@H]5O)[C@@H]4[C@H](C)O3)[C@@H](O)[C@H](O)[C@H]2O)[C@@H]2[C@H](C)O[C@@H](OC)C[C@H]12,Non-Toxic

# Reference: ChEMBL document CHEMBL4130553, “Cornusides A-O, Bioactive Iridoid Glucoside Dimers from the Fruit of Cornus officinalis” (J Nat Prod, 2017)
